Experimental data taken from paper PMC5129256 (International Journal of Environmental Research and Public …, 2016).
Values joined by “and” are separate entries in the source; they are usually repeats but may differ in a detail not shown here. Equal entries are not always repeated. Where two headings read alike, the source gives them in different places.

Tests used:
LMH cells [1] = tested on: LMH cells
LMH cells [2] = details: PrestoBlue; for Viability of LMH Cells (%) ±S.E.M.: 24 h; for IC50 (%): 24 h exposure, from dose-response curves
[3] = tested on: human adenocarcinoma cell line HT-29; parameters: method as in PMID 14642818; details: HT-29, 20 mM (or 0.04%); cited from earlier work
human skin fibroblasts = details: MTS assay; cited from earlier work
in vitro = details: chicken, Viability of LMH Cells (%) ± SD, MTT
laboratory mice = details: mouse, in vivo; cited from earlier work
[4] = tested on: human colon adenocarcinoma cell line Caco-2; parameters: method as in ref 39 = [39]; 39. Olejnik A. Schmidt M. Wojnarowska K. Grajek W. The influence of toxic digestive metabolites on the proliferation and DNA damage of epithelial intestinal cells in vitro Food Sci. Technol. Qual. 200; details: Caco-2, concentrations as low as 10^-6 M; cited from earlier work
workers = tested on: workers; parameters: method as in ref 23 = [23]; 23. The MAK Collection for Occupational Health and Safety, Trimethylamine (MAK Value Documentation, 2004), Wiley Online Library Available online: http://onlinelibrary.wiley.com/doi/10.1002/3527600418.; details: cited from earlier work
[5] = MTT, 24 h exposure, from dose-response curves
[6] = MTT, 48 h exposure, from dose-response curves
[7] = MTT, 72 h exposure, from dose-response curves

## N [Ammonium]
LMH cells [1]; MTT, 0.004%, 24 h
  Viability of LMH Cells (%) ± SD: 97.6 ± 4.3%
LMH cells [1]; MTT, 0.004%, 48 h
  Viability of LMH Cells (%) ± SD: 95.6 ± 2.9%
LMH cells [1]; MTT, 0.004%, 72 h
  Viability of LMH Cells (%) ± SD: 101.9 ± 5.0%
LMH cells [1]; MTT, 0.008%, 24 h
  Viability of LMH Cells (%) ± SD: 98.0 ± 3.0%
LMH cells [1]; MTT, 0.008%, 48 h
  Viability of LMH Cells (%) ± SD: 96.8 ± 1.3%
LMH cells [1]; MTT, 0.008%, 72 h
  Viability of LMH Cells (%) ± SD: 104.8 ± 2.6%
LMH cells [1]; MTT, 0.016%, 24 h
  Viability of LMH Cells (%) ± SD: 93.3 ± 2.8%
LMH cells [1]; MTT, 0.016%, 48 h
  Viability of LMH Cells (%) ± SD: 81.4 ± 5.2 %
LMH cells [1]; MTT, 0.063%, 24 h
  Viability of LMH Cells (%) ± SD: 61.9 ± 2.0 %
LMH cells [1]; MTT, 0.063%, 48 h
  Viability of LMH Cells (%) ± SD: 28.3 ± 1.3 %
LMH cells [1]; MTT, 0.063%, 72 h
  Viability of LMH Cells (%) ± SD: 13.8 ± 1.2 %
LMH cells [1]; MTT, 0.125%, 24 h
  Viability of LMH Cells (%) ± SD: 18.1 ± 0.8 %
LMH cells [1]; MTT, 0.125%, 48 h
  Viability of LMH Cells (%) ± SD: 7.1 ± 0.8 %
LMH cells [1]; MTT, 0.125%, 72 h
  Viability of LMH Cells (%) ± SD: 10.0 ± 1.3 %
LMH cells [1]; MTT, 0.25%, 24 h
  Viability of LMH Cells (%) ± SD: 5.4 ± 0.1 %
LMH cells [1]; MTT, 0.25%, 48 h
  Viability of LMH Cells (%) ± SD: 1.6 ± 0.2 %
LMH cells [1]; MTT, 0.25%, 72 h
  Viability of LMH Cells (%) ± SD: 2.9 ± 0.1 %
LMH cells [1]; MTT, 0.5%, 24 h
  Viability of LMH Cells (%) ± SD: 5.9 ± 0.2 %
LMH cells [1]; MTT, 0.5%, 48 h
  Viability of LMH Cells (%) ± SD: 2.1 ± 0.2 %
LMH cells [1]; MTT, 0.5%, 72 h
  Viability of LMH Cells (%) ± SD: 2.8 ± 0.2 %
LMH cells [1]; MTT, 1.0%, 24 h
  Viability of LMH Cells (%) ± SD: 13.1 ± 0.1 %
LMH cells [1]; MTT, 1.0%, 48 h
  Viability of LMH Cells (%) ± SD: 1.7 ± 0.2 %
LMH cells [1]; MTT, 1.0%, 72 h
  Viability of LMH Cells (%) ± SD: 5.8 ± 0.1 %
LMH cells [1]; [5]
  IC50 (%): 0.08%
LMH cells [1]; [6]
  IC50 (%): 0.04%
LMH cells [1]; [7]
  IC50 (%): 0.02%
LMH cells [1]; MTT, […], 24 h
  Viability of LMH Cells (%) ± SD: 96.4 ± 1.2%
LMH cells [1]; MTT, […], 48 h
  Viability of LMH Cells (%) ± SD: 65.5 ± 4.0 %
LMH cells [1]; MTT, […], 72 h
  Viability of LMH Cells (%) ± SD: 31.6 ± 2.1 %
LMH cells [2]; 0.004%
  Viability of LMH Cells (%) ±S.E.M.: 99.7 ± 5.8%
LMH cells [2]; 0.008%
  Viability of LMH Cells (%) ±S.E.M.: 99.0 ± 10.1%
LMH cells [2]; 0.016%
  Viability of LMH Cells (%) ±S.E.M.: 100.2 ± 8.1%
LMH cells [2]; 0.063%
  Viability of LMH Cells (%) ±S.E.M.: 51.1 ± 7.1 %
LMH cells [2]; 0.125%
  Viability of LMH Cells (%) ±S.E.M.: 24.6 ± 6.3 %
LMH cells [2]; 0.25%
  Viability of LMH Cells (%) ±S.E.M.: 5.7 ± 1.1 %
LMH cells [2]; 0.5%
  Viability of LMH Cells (%) ±S.E.M.: 4.6 ± 0.6 %
LMH cells [2]; 1.0%
  Viability of LMH Cells (%) ±S.E.M.: 4.7 ± 0.7 %
LMH cells [2]
  IC50 (%): 0.07%
LMH cells [2]; […]
  Viability of LMH Cells (%) ±S.E.M.: 99.1 ± 4.9%
[3]
  effect on proliferation: almost suppressed proliferation
Human skin fibroblasts
  IC50: 9.4 mM

## CCCC(=O)O [Butyric acid]
LMH cells [1]
  IC50 (%): 0.32% and 0.11%
LMH cells [1]; MTT, 0.5%, 72 h
  cytotoxicity: 92.4%
LMH cells [1]; MTT, 72 h exposure, concentrations above 0.0125%
  dose-dependent inhibition reached: 92%
In vitro; LMH chicken liver hepatocellular carcinoma cells, 0.006%, 24 h
  viability at 24 h, 0.006 %: 100 ± 0.7%
In vitro; LMH chicken liver hepatocellular carcinoma cells, 0.006%, 72 h
  viability at 72 h, 0.006 %: 98.2 ± 2.1%
In vitro; LMH chicken liver hepatocellular carcinoma cells, 0.013%, 24 h
  viability at 24 h, 0.013 %: 100 ± 0.4%
In vitro; LMH chicken liver hepatocellular carcinoma cells, 0.013%, 72 h
  viability at 72 h, 0.013 %: 95.7 ± 2.1%
In vitro; LMH chicken liver hepatocellular carcinoma cells, 0.025%, 24 h
  viability at 24 h, 0.025 %: 100 ± 0.3%
In vitro; LMH chicken liver hepatocellular carcinoma cells, 0.025%, 72 h
  viability at 72 h, 0.025 %: 86 ± 4.8%
In vitro; LMH chicken liver hepatocellular carcinoma cells, 0.063%, 24 h
  viability at 24 h, 0.063 %: 68.9 ± 1.4%
In vitro; LMH chicken liver hepatocellular carcinoma cells, 0.063%, 72 h
  viability at 72 h, 0.063 %: 66.5 ± 3.2%
In vitro; LMH chicken liver hepatocellular carcinoma cells, 0.125%, 24 h
  viability at 24 h, 0.125 %: 65 ± 0.8%
In vitro; LMH chicken liver hepatocellular carcinoma cells, 0.125%, 72 h
  viability at 72 h, 0.125 %: 46.4 ± 3.2%
In vitro; LMH chicken liver hepatocellular carcinoma cells, 0.25%, 24 h
  viability at 24 h, 0.25 %: 59.4 ± 1.3%
In vitro; LMH chicken liver hepatocellular carcinoma cells, 0.25%, 72 h
  viability at 72 h, 0.25 %: 31.1 ± 2%
In vitro; LMH chicken liver hepatocellular carcinoma cells, 0.5%, 24 h
  viability at 24 h, 0.5 %: 25.1 ± 0.7%
In vitro; LMH chicken liver hepatocellular carcinoma cells, 0.5%, 72 h
  viability at 72 h, 0.5 %: 7.6 ± 0.7%
In vitro; LMH chicken liver hepatocellular carcinoma cells, […], 24 h
  viability at 24 h, […]: 89.3 ± 2%
In vitro; LMH chicken liver hepatocellular carcinoma cells, […], 72 h
  viability at 72 h, […]: 67.2 ± 4.9%

## CNC [Dimethylamine]
LMH cells [1]
  IC50 (%): 0.06%
  IC80: 0.04% and 0.04 * %
  Viability of LMH Cells (%) ± SD: 20.5 ± 0.1 %
  cytotoxicity: above 80%
Laboratory mice
  RD50 (concentration which reduces the rate of respiration by 50%): 70 mL/m^3

## c1ccc2[nH]ccc2c1 [Indole]
LMH cells [1]
  cytotoxicity (in words): not cytotoxic
LMH cells [1]; [7]
  IC50 (%): 0.06%
LMH cells [1]; chicken
  cytotoxicity: 39.7%
In vitro; 0.0004%, 24 h
  viability: 88.6 ± 0.6%
In vitro; 0.0004%, 72 h
  viability: 90.7 ± 1.3%
In vitro; 0.0008%, 24 h
  viability: 95 ± 0.2%
In vitro; 0.0008%, 72 h
  viability: 94.3 ± 2.4%
In vitro; 0.0016%, 24 h
  viability: 97.4 ± 0.2%
In vitro; 0.0016%, 72 h
  viability: 94.8 ± 2.1%
In vitro; 0.0063%, 24 h
  viability: 103 ± 0.4%
In vitro; 0.0063%, 72 h
  viability: 109 ± 2.5%
In vitro; 0.0125%, 24 h
  viability: 95.5 ± 0.8%
In vitro; 0.0125%, 72 h
  viability: 103 ± 1.2%
In vitro; 0.025%, 24 h
  viability: 102.4 ± 0.2%
In vitro; 0.025%, 72 h
  viability: 73.5 ± 2%
In vitro; 0.05%, 24 h
  viability: 94.3 ± 0.6%
In vitro; 0.05%, 72 h
  viability: 73 ± 1.7%
In vitro; 0.1%, 24 h
  viability: 82.2 ± 0.2%
In vitro; 0.1%, 72 h
  viability: 60.3 ± 1.6%
In vitro; […], 24 h
  viability: 100 ± 0.4%
In vitro; […], 72 h
  viability: 104 ± 1.9%

## Oc1ccccc1 [Phenol]
LMH cells [1]
  cytotoxicity (in words): not cytotoxic
LMH cells [1]; chicken
  cytotoxicity: 85.5%
Laboratory mice
  concentration reducing the respiratory rate by 50%: 166 ppm
[4]
  cell proliferation and cell survival: 56%

## CN(C)C [Trimethylamine]
LMH cells [1]
  cytotoxicity: above 95%
LMH cells [1]; MTT, 0.004%, 24 h
  Viability of LMH Cells (%) ± SD: 95.5 ± 1.9%
LMH cells [1]; MTT, 0.004%, 48 h
  Viability of LMH Cells (%) ± SD: 92.5 ± 5.5%
LMH cells [1]; MTT, 0.008%, 24 h
  Viability of LMH Cells (%) ± SD: 100.1 ± 3.1%
LMH cells [1]; MTT, 0.008%, 48 h
  Viability of LMH Cells (%) ± SD: 84.9 ± 8.1%
LMH cells [1]; MTT, 0.016%, 24 h
  Viability of LMH Cells (%) ± SD: 103.6 ± 2.2%
LMH cells [1]; MTT, 0.016%, 48 h
  Viability of LMH Cells (%) ± SD: 72.8 ± 6.5 %
LMH cells [1]; MTT, 0.063%, 24 h
  Viability of LMH Cells (%) ± SD: 69.7 ± 5.9 %
LMH cells [1]; MTT, 0.063%, 48 h
  Viability of LMH Cells (%) ± SD: 2.8 ± 0.2 %
LMH cells [1]; MTT, 0.125%, 24 h
  Viability of LMH Cells (%) ± SD: 8.6 ± 0.5 %
LMH cells [1]; MTT, 0.125%, 48 h
  Viability of LMH Cells (%) ± SD: 5.4 ± 0.3 %
LMH cells [1]; MTT, 0.25%, 24 h
  Viability of LMH Cells (%) ± SD: 7.6 ± 0.3 %
LMH cells [1]; MTT, 0.25%, 48 h
  Viability of LMH Cells (%) ± SD: 4.1 ± 0.3 %
LMH cells [1]; MTT, 0.5%, 24 h
  Viability of LMH Cells (%) ± SD: 7.9 ± 0.2 %
LMH cells [1]; MTT, 0.5%, 48 h
  Viability of LMH Cells (%) ± SD: 3.8 ± 0.3 %
LMH cells [1]; MTT, 1.0%, 24 h
  Viability of LMH Cells (%) ± SD: 7.0 ± 0.1 %
LMH cells [1]; MTT, 1.0%, 48 h
  Viability of LMH Cells (%) ± SD: 2.5 ± 0.3 %
LMH cells [1]; [5]
  IC50 (%): 0.08%
LMH cells [1]; [6]
  IC50 (%): 0.04%
LMH cells [1]; MTT, […], 24 h
  Viability of LMH Cells (%) ± SD: 97.8 ± 1.8%
LMH cells [1]; MTT, […], 48 h
  Viability of LMH Cells (%) ± SD: 61.7 ± 8.9 %
Laboratory mice
  RD50: 61 mL/m^3
LMH cells [2]; 0.004%
  Viability of LMH Cells (%) ±S.E.M.: 72.4 ± 5.4%
LMH cells [2]; 0.008%
  Viability of LMH Cells (%) ±S.E.M.: 54.3 ± 10.9%
LMH cells [2]; 0.016%
  Viability of LMH Cells (%) ±S.E.M.: 51.9 ± 2.9%
LMH cells [2]; 0.063%
  Viability of LMH Cells (%) ±S.E.M.: 36.6 ± 2.4%
LMH cells [2]; 0.125%
  Viability of LMH Cells (%) ±S.E.M.: 17.1 ± 2.3 %
LMH cells [2]; 0.25%
  Viability of LMH Cells (%) ±S.E.M.: 13.6 ± 2.3 %
LMH cells [2]; 0.5%
  Viability of LMH Cells (%) ±S.E.M.: 7.1 ± 0.4 %
LMH cells [2]; 1.0%
  Viability of LMH Cells (%) ±S.E.M.: 6.0 ± 0.3 %
LMH cells [2]
  IC50 (%): 0.02%
LMH cells [2]; […]
  Viability of LMH Cells (%) ±S.E.M.: 38.9 ± 9.6%
workers; concentrations of 20 mL/m^3
  toxic effects in workers: irritant to the mucous membranes and the eyes
workers; mean exposure concentrations of 5 mL/m^3 for 8 h
  toxic effects in workers: no toxic effects
